We go through 14 molecules from patent US8269000B2, “Substituted pyrimidine and triazine compounds” (Gruenenthal GmbH, priority 2008, dated 2012).

In test [1] the target is T1, human B1R (Homo sapiens, UniProt P46663).
T1 construct: expressed in transfected cells; host or cells: CHO K1 cells
T1 sequence (P46663 1-353): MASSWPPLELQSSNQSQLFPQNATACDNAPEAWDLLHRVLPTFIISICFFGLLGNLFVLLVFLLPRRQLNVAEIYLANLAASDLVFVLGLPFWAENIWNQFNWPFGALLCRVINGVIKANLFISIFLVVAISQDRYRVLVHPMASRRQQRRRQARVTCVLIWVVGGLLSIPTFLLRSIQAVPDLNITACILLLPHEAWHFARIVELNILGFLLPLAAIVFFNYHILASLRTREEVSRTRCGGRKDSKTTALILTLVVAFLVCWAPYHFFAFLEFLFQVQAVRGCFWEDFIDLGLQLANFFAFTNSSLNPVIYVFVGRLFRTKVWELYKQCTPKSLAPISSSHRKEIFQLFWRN
Briefly: FLIPR Ca2+ functional study on bradykinin receptor 1 (hB1R CHO K1 cells). The class given is cell-based. The settings on record: % inhibition human B1R at 10 μM, read-out: % inh. (hum. B1R) 10 μM. On the procedure: The agonistic or antagonistic activity of substances can be quantified on the bradykinin receptor 1 (B1R) of the species human and rat using ectopically expressing cell lines (CHO K1 cells) and with the aid of a Ca^2+-sensitive dye (Fluo-4) using a fluorescent imaging plate reader (FLIPR). The indication in % activation is based on the Ca^2+ signal after addition of Lys-Des-Arg^9-bradykinin (0.5 nM) or Des-Arg^9-bradykinin (100 nM). Antagonists lead to suppression of the Ca^2+ influx after the addition of the agonist. % Inhibition compared with the maximum achievable inhibition is indicated.
The agonistic or antagonistic activity of substances can be determined on the bradykinin receptor 1 (B1R) of the species human and rat using the following assay. According to this assay, the Ca^2+ influx through the channel is quantified with the aid of a Ca^2+-sensitive dye (Fluo-4 type, Molecular Probes Europe BV, Leiden, Netherlands) using a Fluorescent Imaging Plate Reader (FLIPR, Molecular Devices, Sunnyvale, USA).
Chinese hamster ovary cells (CHO K1 cells) which have been stably transfected with the human B1R gene (hB1R cells) or with the B1R gene of the rat (rB1R cells) are used. For functional studies, the cells are plated out on black 96-well plates having a clear base (BD Biosciences, Heidelberg, Germany or Greiner, Frickenhausen, Germany) in a density of 20,000-35,000 cells/well. The cells are left overnight at 37° C. and with 5% CO2 in culture medium (hB1R cells: Nutrient Mixture Ham's F12, Gibco Invitrogen GmbH, Karlsruhe, Germany or DMEM, Sigma-Aldrich, Taufkirchen, Germany; rB1R cells: D-MEM/F12, Gibco Invitrogen GmbH, Karlsruhe, Germany), with 10 vol.% FBS (fetal bovine serum, Gibco Invitrogen GmbH, Karlsruhe, Germany or PAN Biotech GmbH, Aidenbach, Germany). On the following day, the cells are loaded for 60 minutes at 37° C. with 2.13 μM Fluo-4 (Molecular Probes Europe BV, Leiden, Netherlands) in HBSS buffer (Hank's buffered saline solution, Gibco Invitrogen GmbH, Karlsruhe, Germany) […] (Sigma-Aldrich, Taufkirchen, Germany) and 10 mM HEPES (Sigma-Aldrich, Taufkirchen, Germany). The plates are then washed twice with HBSS buffer, and HBSS buffer additionally containing 0.1% BSA (bovine serum albumin; Sigma-Aldrich, Taufkirchen, Germany), 5.6 mM glucose and 0.05% gelatin (Merck KGaA, Darmstadt, Germany) is added to the plates. After incubation for a further 20 minutes at room temperature, the plates are inserted into the FLIPR for Ca^2+ measurement. Alternatively, washing is carried out with buffer A (15 mM HEPES, 80 mM NaCl, 5 mM KCl, 1.2 mM CaCl2, 0.7 mM MgSO4, 2 g/l glucose, 2.5 mM probenecid) followed by loading with buffer A with added 2.5 μM Fluo-4 and 0.025% Pluronic F127 (Sigma-Aldrich, Taufkirchen, Germany). The cells are then washed twice with buffer A and incubated for 30 minutes at room temperature with buffer A additionally containing 0.05% BSA and 0.05% gelatin and are then inserted into the FLIPR for Ca^2+ measurement. The Ca^2+-dependent fluorescence is measured before and after the addition of substances (λex=488 nm, λem=540 nm). Quantification is carried out by measuring the highest fluorescence intensity (FC, fluorescence counts) over time.
The FLIPR protocol consists of two substance additions. Test substances (10 μM) are first pipetted onto the cells and the Ca^2+ influx is compared with the control (hB1R: Lys-Des-Arg^9-bradykinin>=50 nM; rB1R: Des-Arg^9-bradykinin 10 μM). This gives the activation in %, based on the Ca^2+ signal after addition of Lys-Des-Arg^9-bradykinin (>=50 nM) or Des-Arg^9-bradykinin (10 μM). After 10-20 minutes' incubation, Lys-Des-Arg^9-bradykinin (hB1R) or Des-Arg^9-bradykinin (rB1R) is applied in the concentration of the EC80, and the influx of Ca^2+ is likewise determined. Antagonists lead to suppression of the Ca^2+ influx. The % inhibition compared with the maximum achievable inhibition is calculated. […]

The target in test [2] is T2, rat B1R (Rattus norvegicus, UniProt P97583).
T2 construct: expressed in transfected cells; host or cells: CHO K1 cells
T2 sequence (P97583 1-337): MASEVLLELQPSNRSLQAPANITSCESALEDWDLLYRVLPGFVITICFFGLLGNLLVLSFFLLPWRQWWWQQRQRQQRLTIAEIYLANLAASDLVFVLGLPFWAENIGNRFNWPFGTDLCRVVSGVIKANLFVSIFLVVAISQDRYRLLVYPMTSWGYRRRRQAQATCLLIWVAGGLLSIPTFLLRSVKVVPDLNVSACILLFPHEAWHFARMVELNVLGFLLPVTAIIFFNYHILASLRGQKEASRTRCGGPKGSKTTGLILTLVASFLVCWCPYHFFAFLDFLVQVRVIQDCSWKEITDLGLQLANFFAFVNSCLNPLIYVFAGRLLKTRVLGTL
Briefly: FLIPR Ca2+ functional study on bradykinin receptor 1 (rB1R CHO K1 cells). The class given is cell-based. The settings on record: for inhibition at 10 µM: CHO-K1, % inhibition rat B1R at 10 μM, read-out: % inh. (rat B1R) 10 μM. The method in brief: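 CHO K1 cells stably expressing human or rat B1R were loaded with Fluo-4 and read on FLIPR (ex 488/em 540 nm, peak counts). Test compound (10 μM, or a concentration range for IC50) was added first for % activation versus control agonist; after 10-20 min, EC80 Lys-Des-Arg9-bradykinin (human) or Des-Arg9-bradykinin (rat) was added, giving % inhibition of maximum. n=2-3, N≥2.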

As for `Cc1cccc(Cl)c1S(=O)(=O)N(CCOc1ccnc(N2CCC3(CCN(c4ccncc4)CC3)CC2)n1)C1CC1` [Example H-006, 2-chloro-N-cyclopropyl-6-methyl-N-[2-[[2-[9-(4-pyridyl)-3,9-diazaspiro[5.5]undecan-3-yl]-4-pyrimidinyl]oxy]ethyl]benzenesulfonamide], the inhibition at 10 µM in test [1] turned out to be 64%; in test [2] it was 92%.

For `COc1cc(C)c(S(=O)(=O)N2CCC[C@H]2COc2nccc(N3CCC4(CC3)C(=O)NCN4c3ccccc3)n2)c(C)c1` [G_CC-035, 8-[2-[[(2S)-1-(4-methoxy-2,6-dimethylphenyl)sulfonyl-2-pyrrolidinyl]methoxy]-4-pyrimidinyl]-4-phenyl-2,4,8-triazaspiro[4.5]decan-1-one], the results for the inhibition at 10 µM in test [1] and in test [2] were -1% and 99%, respectively.

On to `COc1cc(C)c(S(=O)(=O)N(CCN(C)c2cncc(N3CCC4(CCN(c5ccncc5)CC4)CC3)n2)C2CC2)c(C)c1` [Example I-002, N-cyclopropyl-4-methoxy-2,6-dimethyl-N-[2-[methyl-[6-(9-pyridin-4-yl-3,9-diazaspiro[5.5]undecan-3-yl)-pyrazin-2-yl]-amino]-ethyl]-benzenesulfonic acid amide], for which the inhibition at 10 µM in test [1] came to 94%; in test [2], 109%.

With `Cc1ccc(Cl)c(S(=O)(=O)N(CCOc2nccc(N3CCC4(CCN(c5ccncc5)CC4)CC3)n2)C2CC2)c1Cl` [Example G-021, 2,6-dichloro-N-cyclopropyl-3-methyl-N-[2-[4-(9-pyridin-4-yl-3,9-diazaspiro[5.5]undecan-3-yl)-pyrimidin-2-yl]oxy-ethyl]-benzenesulfonic acid amide], the inhibition at 10 µM in test [1] amounted to 90%; in test [2], 86%.

In the case of `COc1cc(C)c(S(=O)(=O)N(C)CCOc2ccnc(N3CCC(CCN4CCCC4)CC3)n2)c(C)c1` [Example H-001, 4-methoxy-N,2,6-trimethyl-N-[2-[[2-[4-(2-1-pyrrolidinylethyl)-1-piperidinyl]-4-pyrimidinyl]oxy]ethyl]benzenesulfonamide], the inhibition at 10 µM in test [1] amounted to 44%; in test [2], 99%.

With `COc1cc(C)c(S(=O)(=O)N(CCN(C)c2ccnc(N3CCC4(CCN(c5ccncc5)CC4)CC3)n2)C2CC2)c(C)c1` [Example I-004, N-cyclopropyl-4-methoxy-2,6-dimethyl-N-[2-[methyl-[2-(9-pyridin-4-yl-3,9-diazaspiro[5.5]undecan-3-yl)-pyrimidin-4-yl]-amino]-ethyl]-benzenesulfonic acid amide], the inhibition at 10 µM in test [1] was found to be 85%; in test [2] it was 102%.

`COc1cc(C)c(S(=O)(=O)N(CCCc2cncc(N3CCC4(CCN(c5ccncc5)CC4)CC3)n2)C2CC2)c(C)c1` [Example I-006, N-cyclopropyl-4-methoxy-2,6-dimethyl-N-[3-[6-(9-pyridin-4-yl-3,9-diazaspiro[5.5]undecan-3-yl)-pyrazin-2-yl]-propyl]-benzenesulfonic acid amide]: the inhibition at 10 µM in test [1] came to 94%; in test [2], 97%.

For `COc1cc(C)c(S(=O)(=O)N(C)CCOc2nccc(N3CCC(CCN4CCCC4)CC3)n2)c(C)c1` [Example G-001, 4-methoxy-N,2,6-trimethyl-N-[2-[[4-[4-(2-1-pyrrolidinylethyl)-1-piperidinyl]-2-pyrimidinyl]oxy]ethyl]benzenesulfonamide], the inhibition at 10 µM worked out at 84% in test [1] and 99% in test [2].

Take `COc1cc(C)c(S(=O)(=O)N(CCN(C)c2nccc(N3CCC4(CCN(c5ccncc5)CC4)CC3)n2)C2CC2)c(C)c1` [Example I-005, N-cyclopropyl-4-methoxy-2,6-dimethyl-N-[2-[methyl-[4-(9-pyridin-4-yl-3,9-diazaspiro[5.5]undecan-3-yl)-pyrimidin-2-yl]-amino]-ethyl]-benzenesulfonic acid amide]: the inhibition at 10 µM in test [1] turned out to be 96%; in test [2] it was 111%.

With `COc1cc(C)c(S(=O)(=O)N2CCCCC2COc2nccc(N3CCC4(CCN(Cc5ccccc5)C4=O)CC3)n2)c(C)c1` (stereo not shown) [G_CC-040, 3-benzyl-8-[2-[[1-(4-methoxy-2,6-dimethylphenyl)sulfonyl-2-piperidinyl]methoxy]-4-pyrimidinyl]-3,8-diazaspiro[4.5]decan-4-one], the inhibition at 10 µM was determined as 57% in test [1] and 99% in test [2].

In the case of `COc1cc(C)c(S(=O)(=O)N(CCOc2nccc(NCCC3CCN(c4ccncc4)CC3)n2)C2CC2)c(C)c1` [Example G-006, N-cyclopropyl-4-methoxy-2,6-dimethyl-N-[2-[[4-[2-[1-(4-pyridyl)-4-piperidinyl]ethylamino]-2-pyrimidinyl]oxy]ethyl]benzenesulfonamide], the inhibition at 10 µM in test [1] worked out at 99%; in test [2], 94%.

As for `COc1cc(C)c(S(=O)(=O)N2CCCCC2COc2ccnc(N(C)CCN3CCC(c4ccccc4)(N(C)C)CC3)n2)c(C)c1` (stereo not shown) [Example H-004], the inhibition at 10 µM in test [1] worked out at 99%. Moreover, the “% inh. (rat B1R) 10 μM” value in test [2] (% inhibition rat B1R at 10 μM, 10 µM) stood at 93%.

On to `COc1cc(C)c(S(=O)(=O)N(CCOc2nccc(N3CCC4(CCC(N5CC(F)(F)C5)CC4)CC3)n2)C2CC2)c(C)c1` [Example G-017, N-cyclopropyl-N-[2-[[4-[9-(3,3-difluoro-1-azetidinyl)-3-azaspiro[5.5]undecan-3-yl]-2-pyrimidinyl]oxy]ethyl]-4-methoxy-2,6-dimethylbenzenesulfonamide], for which the inhibition at 10 µM in test [1] came to 22%; in test [2] it was 103%.

For the molecule `COc1cc(C)c(S(=O)(=O)N2CCCCC2COc2nccc(N3CCN(CC4CCN(C)CC4)CC3)n2)c(C)c1` (stereo not shown) [G_CC-014, 2-[[1-(4-methoxy-2,6-dimethylphenyl)sulfonyl-2-piperidinyl]methoxy]-4-[4-[(1-methyl-4-piperidinyl)methyl]-1-piperazinyl]pyrimidine], the inhibition at 10 µM in test [1] worked out at 94%; in test [2], 105%.
